Laboratory results reported in ChEMBL document CHEMBL5614386, “Design, synthesis, and biological evaluation of novel 1-amido-2-one-4-thio-deoxypyranose as potential antitumor agents for multiple myeloma” (Bioorg Med Chem, 2024).
Calls of active or inactive are those of the source. The calls are words filed in the database; no cut-off is given here.

What was measured:
ARP-1 [1] = assay: Anti-proliferative activity against human ARP-1 cells assessed as inhibition cell growth incubated for 72 hrs by CCK-8 assay; format: functional, cell-based
NCI-H929 [2] = assay: Anti-proliferative activity against human NCI-H929 cells assessed as inhibition cell growth incubated for 72 hrs by CCK-8 assay; format: functional, cell-based
NCI-H929 [3] = assay: Anti-proliferative activity against human NCI-H929 cells assessed as inhibition cell growth at 5 uM incubated for 72 hrs by CCK-8 assay; format: functional, cell-based
[4] = Anti-proliferative activity against human ARP-1cells assessed as cell growth inhibition incubated for 72 hrs by CCK-8 assay; conditions: ARP-1, 72 h
NCI-H929 [5] = assay: Anti-proliferative activity against human NCI-H929 cells assessed as cell growth inhibition incubated for 72 hrs by CCK-8 assay; conditions: NCI-H929, 72 h
NCI-H929 [6] = assay: Antitumor activity against human NCI-H929 cells xenografted in BALB/C nude mouse model assessed as reduction in tumor growth at 50 mg/kg, sc administrated every other day for 13 days; format: functional, organism-based; conditions: time 13.0 day
[7] = Toxicity in BALB/c mouse xenografted with human NCI-H929 cells assessed as effect on body weight at 50 mg/kg, sc administrated every other day for 13 days; format: organism-based; conditions: in vivo, 312 h, time 13 day
ARP-1 [8] = assay: Anti-proliferative activity against human ARP-1 cells assessed as inhibition cell growth at 5 uM incubated for 72 hrs by CCK-8 assay; format: functional, cell-based
NCI-H929 [9] = assay: Induction of DNA damage in human NCI-H929 cells assessed as increase gamma-H2AX level at 10 to 20 uM incubated for 24 hrs by Western blot analysis; format: functional, cell-based; conditions: dose 10-20 µM
[10] = Toxicity in BALB/c mouse assessed as histological change in heart at 50 mg/kg, sc administrated every other day for 13 days by H and E staining based light microscopic analysis; format: organism-based; conditions: in vivo, 312 h, time 13 day
[11] = Toxicity in BALB/c mouse assessed as histological change in liver at 50 mg/kg, sc administrated every other day for 13 days by H and E staining based light microscopic analysis; format: organism-based; conditions: in vivo, 312 h, time 13 day
[12] = Toxicity in BALB/c mouse assessed as histological change in kidney at 50 mg/kg, sc administrated every other day for 13 days by H and E staining based light microscopic analysis; format: organism-based; conditions: in vivo, 312 h, time 13 day
[13] = Toxicity in BALB/c nude mouse xenografted with human NCI-H929 cells assessed as side effect at 50 mg/kg, sc administrated every other day for 13 days by H and E staining based light microscopic analysis; format: organism-based; conditions: in vivo, 312 h, time 13 day
[14] = Toxicity in BALB/c nude mouse xenografted with human NCI-H929 cells assessed as drug tolerance at 50 mg/kg, sc administrated every other day for 13 days by H and E staining based light microscopic analysis; format: organism-based; conditions: in vivo, 312 h, time 13 day
NCI-H929 [15] = assay: Antitumor activity against human NCI-H929 cells xenografted in BALB/c nude mouse assessed as Ki-67 activity in tumor by microscopy based analysis; format: functional, cell-based
[16] = Toxicity in BALB/c mouse assessed as histological change in tumor at 50 mg/kg, sc administrated every other day for 13 days by H and E staining based light microscopic analysis; format: organism-based; conditions: in vivo, 312 h, time 13 day

SMILES	Activity (ARP-1 [1])	Activity (NCI-H929 [2])	Activity (NCI-H929 [3])	IC50 [4]	IC50 (NCI-H929 [5])	Activity (ARP-1 [8])	also measured
Cc1ccc(SC2CC(O)[C@H](NC(=O)c3ccc4c(c3)OCO4)O[C@@H]2CO)cc1 (some centres not stated)	Active	Active					
O=C1C2C3C=CC(C4CC34)C2C(=O)N1c1ccc(Cc2ccncc2)cc1 (configuration not stated)			Active	5450 nM	6880 nM		Activity (NCI-H929 [6]): Active; Activity [7]: Non-Toxic
COc1ccc(SC2CC(=O)[C@H](NC(=O)c3ccc4c(c3)OCO4)O[C@@H]2COC(C)=O)cc1OC (some centres not stated)			Active	2070 nM	1240 nM	Active	Activity (NCI-H929 [9]): Active; Activity (NCI-H929 [6]): Active; Activity [7]: Non-Toxic; Activity [10]: Non-Toxic; Activity [11]: Non-Toxic; Activity [12]: Non-Toxic; Activity [13]: Non-Toxic; Activity [14]: Non-Toxic; Activity (NCI-H929 [15]): Active; Activity [16]: Non-Toxic
COc1ccc(SC2CC(O)[C@H](NC(=O)c3ccc4c(c3)OCO4)O[C@@H]2CO)cc1OC (some centres not stated)	Active	Active					
COc1ccc(SC2CC(O)[C@H](NC(=O)c3ccc4c(c3)OCO4)O[C@@H]2CO)cc1 (some centres not stated)	Active	Active					
COc1ccc(SC2CC(=O)[C@H](NC(=O)c3ccc(OC)cc3)O[C@@H]2COC(C)=O)cc1 (some centres not stated)			Active	1410 nM	1200 nM	Active	
COc1ccc(SC2CC(=O)[C@H](NC(=O)c3ccc4c(c3)OCO4)O[C@@H]2COC(C)=O)cc1 (some centres not stated)			Active	1380 nM	1460 nM	Active	
CC(=O)OC[C@H]1O[C@@H](NC(=O)c2ccc3c(c2)OCO3)C(=O)CC1SCc1ccco1 (some centres not stated)			Active	2710 nM	3030 nM	Active	
